22 compounds from patent US12415785B2, “Compound modulators of sting” (CTXT PTY LTD, priority 2019, dated 2025) can be followed below.

The target in the test is human STING (WT) (Homo sapiens (Human), UniProt Q86WV6, H232R). Nature of the test: Surface plasmon resonance (SPR), STING (WT). The class given is binding. The following applies: biotinylated STING on streptavidin chip, 8° C. As for the experimental part: Biophysical experiments were performed with three different recombinant human STING protein variants designated according to allelic nomenclature of Yi et al., (2013). Codon optimized DNA sequences (for expression in Escherichia coli) encoding amino acid residues 149 to 345 (Swiss Prot Q86WV6) of human STING (WT), human STING (HAQ) and human STING (R232H) were synthesised by GenScript USA Inc (Piscataway, New Jersey, USA). These were ligated into a modified pET43a E. coli expression vector designed to encode N-terminal His tag followed by tobacco etch virus protease (TEV) cleavage site and a STING gene sequence. The resulting protein sequences for the three allelic variants are listed below:
Binding interactions of ligands with STING proteins were quantified using Surface Plasmon Resonance (SPR) with a minimally biotinylated STING protein immobilized on a streptavidin chip surface. […] Minimal biotinylation of purified huSTING proteins was performed using a previously described methodology (Chhabra 2012). Briefly, approximately 20 nmol of recombinant STING protein in 1×TBS buffer (25 mM Tris-HCl, pH 7.5, 150 mM NaCl, 5 mM DTT) was mixed with of EZ-Link™ Sulfo-NHS-LC-LC-Biotin (Thermofisher Scientific, cat #21338) at a molar ratio of 1 to 0.6 and incubated on ice for 2 hours. To remove any unreacted biotin reagent, protein/biotin mixture was passed through a Superdex 75 (10/300 GL) column equilibrated with 10 mM HEPES, pH7.4, 150 mM NaCl, 5 mM DTT, 5%[v/v] glycerol. A protein peak containing biotinylated huSTING protein was collected and stored in aliquots at −80° C.
Streptavidin was simultaneously immobilized in all four channels of a CM5 sensor chip docked in a Biacore instrument (either Biacore S200 or Biacore T200, GE Healthcare) as described previously (Zender 2013). Minimally biotinylated STING protein was captured onto a streptavidin coated chip surface at 8° C. in SPR binding buffer (50 mM HEPES, pH 7.4, 150 mM NaCl, 2%[v/v] DMSO) by gradually injecting in a single channel at a constant flow-rate of 2 μL/min until desired capture level was achieved, typically 3000 to 7000 RU (1 RU=1 pg/mm^2).
All binding experiments were performed at 8° C. in SPR binding buffer. To determine binding affinity, compound interaction with immobilized STING protein was analysed using dose-response experiments. Fresh 10 mM DMSO solutions of compound were diluted directly into SPR binding buffer typically to a concentration of 50 μM and then further diluted 2-fold or 3-fold aiming for either a 5- or 7-point concentration series range. Each ligand concentration series was injected at a constant flow rate of 60 μL/min with a 90 second association and a 180 second dissociation time. These were modified for compounds with longer residence times, so that curves could reach steady-state, or so that compound would be fully dissociated before the subsequent injection.
Scrubber 2 (www.biologic.com.au) was utilized for data processing, where signals were referenced against the blank surface (streptavidin+D-biotin) and further corrected for DMSO refractive index change and then “double-referenced” using a buffer-blank injection (Papalia 2006). Responses were fitted to either a 1:1 steady-state affinity model or a 1:1 kinetic model (that included a mass-transport component), available within Scrubber.
In general terms: Surface plasmon resonance follows binding to a sensor surface in real time, without labels.

A value given as a limit tells only on which side of the number the result lay.

Sequence of human STING (WT) (Q86WV6 other isoform, or with tags, fused parts or gaps, stated change not applied): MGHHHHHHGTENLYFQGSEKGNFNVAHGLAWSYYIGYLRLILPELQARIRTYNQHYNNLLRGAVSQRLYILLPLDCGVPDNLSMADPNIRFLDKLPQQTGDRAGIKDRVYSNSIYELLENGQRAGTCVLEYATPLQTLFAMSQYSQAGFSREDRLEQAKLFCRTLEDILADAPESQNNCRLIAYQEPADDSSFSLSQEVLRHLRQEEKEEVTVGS

`COc1c(C(N)=O)ccc2c1nc(-c1ccc(Cl)cc1-c1cn[nH]n1)n2CCn1c(-c2ccc(Cl)cc2-c2cn[nH]n2)nc2c(OC)c(C(N)=O)ccc21` [Example 24, 1,1′-(Ethane-1,2-diyl)bis(2-(4-chloro-2-(2H-1,2,3-triazol-4-yl)phenyl)-4-methoxy-1H-benzo[d]imidazole-5-carboxamide)]: binding was put at a Kd of 102 µM. As for `COc1c(C(N)=O)ccc2c1nc(-c1cc(C)ccc1C(=O)O)n2CCn1c(-c2cc(C)ccc2C(=O)O)nc2c(OC)c(C(N)=O)ccc21` [Example 26, 2,2′-(Ethane-1,2-diylbis(5-carbamoyl-4-methoxy-1H-benzo[d]imidazole-1,2-diyl))bis(4-methylbenzoic acid)], the Kd was more than 40 µM. For the compound `NC(=O)c1ccc2c(c1)nc(-c1ccccc1C(=O)O)n2CCn1c(-c2ccccc2C(=O)O)nc2cc(C(N)=O)ccc21` [Example 2, 2,2′-(Ethane-1,2-diylbis(5-carbamoyl-1H-benzo[d]imidazole-1,2-diyl))dibenzoic acid], the Kd was found to be 80 µM. Regarding `COc1c(C(N)=O)ccc2c1nc(-c1ccccc1-c1nn[nH]n1)n2CCn1c(-c2ccccc2-c2nn[nH]n2)nc2c(OC)c(C(N)=O)ccc21` [Example 6, 1,1′-(Ethane-1,2-diyl)bis(2-(2-(2H-tetrazol-5-yl)phenyl)-4-methoxy-1H-benzo[d]imidazole-5-carboxamide)], the dissociation constant Kd was 40 µM. `COC(=O)c1c(Br)cccc1-c1nc2c(OC)c(C(N)=O)ccc2n1CCn1c(-c2cccc(Br)c2C(=O)OC)nc2c(OC)c(C(N)=O)ccc21` [Example 21, Dimethyl 6,6′-(ethane-1,2-diylbis(5-carbamoyl-4-methoxy-1H-benzo[d]imidazole-1,2-diyl))bis(2-bromobenzoate)] showed a dissociation constant Kd of 5.38 µM.

As for `COc1c(C(N)=O)ccc2c1nc(-c1ccc(Cl)cc1C(=O)O)n2CCn1c(-c2ccc(Cl)cc2C(=O)O)nc2c(OC)c(C(N)=O)ccc21` [Example 1, 6,6′-(Ethane-1,2-diylbis(5-carbamoyl-4-methoxy-1H-benzo[d]imidazole-1,2-diyl))bis(3-chlorobenzoic acid)], the equilibrium dissociation constant (Kd) was found to be 200 µM. `COc1c(C(N)=O)ccc2c1nc(-c1c(F)cc(Cl)cc1Br)n2CCn1c(-c2c(F)cc(Cl)cc2Br)nc2c(OC)c(C(N)=O)ccc21` [Example 45, 1,1′-(Ethane-1,2-diyl)bis(2-(2-bromo-4-chloro-6-fluorophenyl)-4-methoxy-1H-benzo[d]imidazole-5-carboxamide)] returned a Kd of 29.6 µM. `COc1c(C(N)=O)cc(F)c2c1nc(-c1c(F)cc(F)cc1C(=O)O)n2CCn1c(-c2c(F)cc(F)cc2C(=O)O)nc2c(OC)c(C(N)=O)cc(F)c21` [Example 18, 2,2′-(Ethane-1,2-diylbis(5-carbamoyl-7-fluoro-4-methoxy-1H-benzo[d]imidazole-1,2-diyl))bis(3,5-difluorobenzoic acid)] had a dissociation constant (Kd) of 2.01 µM.

Regarding `COc1c(C(N)=O)ccc2c1nc(-c1cc(Cl)ccc1-c1nn[nH]n1)n2CCn1c(-c2cc(Cl)ccc2-c2nn[nH]n2)nc2c(OC)c(C(N)=O)ccc21` [Example 42, 1,1′-(Ethane-1,2-diyl)bis(2-(5-chloro-2-(2H-tetrazol-5-yl)phenyl)-4-methoxy-1H-benzo[d]imidazole-5-carboxamide)], binding was characterised by a dissociation constant (Kd) of 139 µM.

The compound `COc1c(C(N)=O)ccc2c1nc(-c1cccc(Cl)c1-c1nn[nH]n1)n2CCn1c(-c2cccc(Cl)c2-c2nn[nH]n2)nc2c(OC)c(C(N)=O)ccc21` [Example 40, 1,1′-(Ethane-1,2-diyl)bis(2-(3-chloro-2-(2H-tetrazol-5-yl)phenyl)-4-methoxy-1H-benzo[d]imidazole-5-carboxamide)] gave a Kd of 180 µM. In turn, `COc1c(C(N)=O)ccc2c1nc(-c1cc(F)c(F)cc1C(=O)O)n2CCn1c(-c2cc(F)c(F)cc2C(=O)O)nc2c(OC)c(C(N)=O)ccc21` [Example 15, 6,6′-(Ethane-1,2-diylbis(5-carbamoyl-4-methoxy-1H-benzo[d]imidazole-1,2-diyl))bis(3,4-difluorobenzoic acid)] came in with a Kd of 1000 µM. Turning to `COc1ccc(-c2nc3c(OC)c(C(N)=O)ccc3n2CCn2c(-c3ccc(OC)cc3C(=O)O)nc3c(OC)c(C(N)=O)ccc32)c(C(=O)O)c1` [Example 41, 6,6′-(Ethane-1,2-diylbis(5-carbamoyl-4-methoxy-1H-benzo[d]imidazole-1,2-diyl))bis(3-methoxybenzoic acid)], the dissociation constant Kd worked out at 200 µM. `COc1c(C(N)=O)ccc2c1nc(-c1ccc(C)cc1C(=O)O)n2CCn1c(-c2ccc(C)cc2C(=O)O)nc2c(OC)c(C(N)=O)ccc21` [Example 25, 6,6′-(Ethane-1,2-diylbis(5-carbamoyl-4-methoxy-1H-benzo[d]imidazole-1,2-diyl))bis(3-methylbenzoic acid)] yielded a dissociation constant (Kd) of 250 µM. In the case of `COc1c(C(N)=O)ccc2c1nc(-c1c(F)cc(Cl)cc1C(=O)O)n2CCn1c(-c2c(F)cc(Cl)cc2C(=O)O)nc2c(OC)c(C(N)=O)ccc21` [Example 11, 2,2′-(ethane-1,2-diylbis(5-carbamoyl-4-methoxy-1H-benzo[d]imidazole-1,2-diyl))bis(5-chloro-3-fluorobenzoic acid)], the Kd worked out at 1.08 µM. Regarding `COc1c(C(N)=O)ccc2c1nc(-c1c(F)cccc1C(=O)O)n2CCn1c(-c2c(F)cccc2C(=O)O)nc2c(OC)c(C(N)=O)ccc21` [Example 10, 2,2′-(Ethane-1,2-diylbis(5-carbamoyl-4-methoxy-1H-benzo[d]imidazole-1,2-diyl))bis(3-fluorobenzoic acid)], the equilibrium dissociation constant (Kd) was determined as 5.86 µM. The compound `COc1c(C(N)=O)ccc2c1nc(-c1ccc(Cl)cc1-c1noc(=O)[nH]1)n2CCn1c(-c2ccc(Cl)cc2-c2noc(=O)[nH]2)nc2c(OC)c(C(N)=O)ccc21` [Example 32, 1,1′-(Ethane-1,2-diyl)bis(2-(4-chloro-2-(5-oxo-4,5-dihydro-1,2,4-oxadiazol-3-yl)phenyl)-4-methoxy-1H-benzo[d]imidazole-5-carboxamide)] registered a Kd of more than 80 µM. As for `COc1c(C(N)=O)ccc2c1nc(-c1ccc(Cl)cc1C(=O)O)n2CCCn1c(-c2ccc(Cl)cc2C(=O)O)nc2c(OC)c(C(N)=O)ccc21` [Example 35, 6,6′-(Propane-1,3-diylbis(5-carbamoyl-4-methoxy-1H-benzo[d]imidazole-1,2-diyl))bis(3-chlorobenzoic acid)], the figure is more than 100 µM. As for `COc1c(C(N)=O)ccc2c1nc(-c1c(F)cc(F)cc1C(=O)O)n2CCn1c(-c2c(F)cc(F)cc2C(=O)O)nc2c(OC)c(C(N)=O)ccc21` [Example 16, 2,2′-(Ethane-1,2-diylbis(5-carbamoyl-4-methoxy-1H-benzo[d]imidazole-1,2-diyl))bis(3,5-difluorobenzoic acid)], the figure is 1.52 µM; as for `COc1c(C(N)=O)ccc2c1nc(-c1c(Cl)cccc1C(=O)O)n2CCn1c(-c2c(Cl)cccc2C(=O)O)nc2c(OC)c(C(N)=O)ccc21` (racemic) [Example 22, 2,2′-(Ethane-1,2-diylbis(5-carbamoyl-4-methoxy-1H-benzo[d]imidazole-1,2-diyl))bis(3-chlorobenzoic acid)], 0.077 µM; as for `COc1c(C(N)=O)ccc2c1nc(-c1c(F)cc(F)cc1-c1nn[nH]n1)n2CCn1c(-c2c(F)cc(F)cc2-c2nn[nH]n2)nc2c(OC)c(C(N)=O)ccc21` [Example 43, 1,1′-(Ethane-1,2-diyl)bis(2-(2,4-difluoro-6-(2H-tetrazol-5-yl)phenyl)-4-methoxy-1H-benzo[d]imidazole-5-carboxamide)], 1.79 µM.

In turn, `COc1c(C(N)=O)ccc2c1nc(-c1ccccc1C(=O)O)n2CCn1c(-c2ccccc2C(=O)O)nc2c(OC)c(C(N)=O)ccc21` [Example 4, 2,2′-(Ethane-1,2-diylbis(5-carbamoyl-4-methoxy-1H-benzo[d]imidazole-1,2-diyl))dibenzoic acid] registered a Kd of more than 10 µM.

`COc1c(C(N)=O)ccc2c1nc(-c1c(F)cc(Cl)cc1-c1n[nH]c(=O)o1)n2CCn1c(-c2c(F)cc(Cl)cc2-c2n[nH]c(=O)o2)nc2c(OC)c(C(N)=O)ccc21` [Example 50, 1,1′-(Ethane-1,2-diyl)bis(2-(4-chloro-2-fluoro-6-(5-oxo-4,5-dihydro-1,3,4-oxadiazol-2-yl)phenyl)-4-methoxy-1H-benzo[d]imidazole-5-carboxamide)] showed an equilibrium dissociation constant (Kd) of 0.359 µM.

One may read the Kd as the free concentration of one partner at which half of the binding sites on the other are occupied at equilibrium, for simple one-to-one binding. Low readings indicate a tighter complex, high ones a looser complex.
